Substitutions are numbered along the chain they refer to. pEC50: −log10 of the molar value.
Columns and labels:
Assay type in all cases: cell-based
rat M1 W101A receptor = target: T1, rat M1 W101A receptor (Rattus norvegicus, UniProt P08482, W101A); test: Phosphatidyl inositol hydrolysis assay, W101A; conditions: Table 6; for Shift: EC50 W101A divided by EC50 wild-type; for pEC50 / Eff (%): PI hydrolysis, W101A; for Eff (%): relative to wild-type response to that ligand (clozapine: title says fold-response)
T1 construct: expressed in transfected cells
T1 sequence (P08482 1-460 W101A): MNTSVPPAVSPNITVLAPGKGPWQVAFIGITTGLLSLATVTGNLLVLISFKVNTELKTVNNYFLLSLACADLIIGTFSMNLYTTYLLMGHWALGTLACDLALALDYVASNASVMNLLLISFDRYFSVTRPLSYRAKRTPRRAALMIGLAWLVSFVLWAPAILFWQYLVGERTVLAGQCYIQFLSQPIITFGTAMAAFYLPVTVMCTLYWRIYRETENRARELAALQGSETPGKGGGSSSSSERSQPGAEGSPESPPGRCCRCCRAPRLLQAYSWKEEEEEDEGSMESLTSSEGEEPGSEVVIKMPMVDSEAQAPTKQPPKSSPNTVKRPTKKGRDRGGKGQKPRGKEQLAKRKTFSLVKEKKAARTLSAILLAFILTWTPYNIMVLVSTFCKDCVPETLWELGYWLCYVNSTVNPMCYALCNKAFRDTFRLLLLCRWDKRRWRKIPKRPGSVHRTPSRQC

rat M1 S109A receptor = target: T2, rat M1 S109A receptor (Rattus norvegicus, UniProt P08482, S109A); test: Phosphatidyl inositol hydrolysis assay, S109A; conditions: Table 6; for Shift: EC50 S109A divided by EC50 wild-type; for pEC50 / Eff (%): PI hydrolysis, S109A; for Eff (%): relative to wild-type response to that ligand
T2 construct: expressed in transfected cells
T2 sequence (P08482 1-460 S109A): T1 sequence (P08482 1-460 W101A) with A101W, S109A

rat M1 Y106A receptor = target: T3, rat M1 Y106A receptor (Rattus norvegicus, UniProt P08482, Y106A); test: Phosphatidyl inositol hydrolysis assay, Y106A; conditions: Table 6; for Shift: EC50 Y106A divided by EC50 wild-type; for pEC50 / Eff (%): PI hydrolysis, Y106A; for Eff (%): relative to wild-type response to that ligand (clozapine: title says fold-response)
T3 construct: expressed in transfected cells
T3 sequence (P08482 1-460 Y106A): T1 sequence (P08482 1-460 W101A) with A101W, Y106A

Shift (rat M1 W101A receptor) | pEC50 (rat M1 W101A receptor) | Eff (%) (rat M1 W101A receptor) | Shift (rat M1 S109A receptor) | pEC50 (rat M1 S109A receptor) | Eff (%) (rat M1 S109A receptor) | Shift (rat M1 Y106A receptor) | pEC50 (rat M1 Y106A receptor) | Eff (%) (rat M1 Y106A receptor) | SMILES
6 | 6.50 | 54 ± 11% | 4 | 6.70 | 47 ± 17% | 3 | 6.70 | 40 ± 4% | Clc1ccc2c(c1)N=C(N1CCNCC1)c1ccccc1N2 [NDMC, 8-chloro-11-(1-piperazinyl)-5H-dibenzo [b,e] [1,4] diazepine]
0.03 | 8.80 | 112 ± 6% | 1 | 7.10 | 85 ± 11% | 4 | 6.60 | 110 ± 22% | CCCCC1CCN(CCCN2C(=O)COc3cc(F)ccc32)CC1 [AC-260584, 4-[3-(4-Butyl-piperidin-1-yl)-propyl]-7-fluoro-4H-benzo [1,4]oxazin-3-one]

From patent US20090209525A1, “ENABLING METHODS TO IDENTIFY ALLOSTERIC MODULATORS OF RECEPTOR ACTIVITY” (priority 2006, published 2009)
